Assay results as given in the NIST ThermoML archive (doi:10.1021/je301283e).
Numbers after ± are expanded uncertainties.

Details: Liquid, Vibrating tube method

CCCCCCC [heptane]
mass density (313.15 K, 340 kPa): 667.1 ± 1.4 kg/m3 | mass density (313.15 K, 690 kPa): 667.5 ± 1.4 kg/m3 | mass density (313.15 K, 1030 kPa): 667.8 ± 1.4 kg/m3 | mass density (313.15 K, 1380 kPa): 668.2 ± 1.4 kg/m3 | mass density (313.15 K, 1720 kPa): 668.64 ± 1.4 kg/m3 | mass density (313.15 K, 2070 kPa): 669 ± 1.4 kg/m3 | mass density (313.15 K, 2410 kPa): 669.3 ± 1.4 kg/m3 | mass density (313.15 K, 2760 kPa): 669.8 ± 1.4 kg/m3 | mass density (313.15 K, 3100 kPa): 670.1 ± 1.4 kg/m3 | mass density (313.15 K, 3450 kPa): 670.4 ± 1.4 kg/m3 | mass density (313.15 K, 3800 kPa): 670.8 ± 1.4 kg/m3 | mass density (313.15 K, 4140 kPa): 671.2 ± 1.4 kg/m3 | mass density (313.15 K, 4480 kPa): 671.6 ± 1.4 kg/m3 | mass density (313.15 K, 4830 kPa): 671.9 ± 1.4 kg/m3 | mass density (313.15 K, 5170 kPa): 672.2 ± 1.4 kg/m3 | mass density (313.15 K, 5510 kPa): 672.6 ± 1.4 kg/m3 | mass density (313.15 K, 5860 kPa): 672.9 ± 1.4 kg/m3 | mass density (313.15 K, 6200 kPa): 673.3 ± 1.4 kg/m3 | mass density (313.15 K, 6550 kPa): 673.6 ± 1.4 kg/m3 | mass density (313.15 K, 6890 kPa): 674 ± 2 kg/m3 | mass density (313.15 K, 7240 kPa): 674.3 ± 1.4 kg/m3 | mass density (333.15 K, 340 kPa): 649.7 ± 1.4 kg/m3 | mass density (333.15 K, 690 kPa): 650.2 ± 1.4 kg/m3 | mass density (333.15 K, 1030 kPa): 650.6 ± 1.4 kg/m3 | mass density (333.15 K, 1380 kPa): 651 ± 1.4 kg/m3 | mass density (333.15 K, 1720 kPa): 651.4 ± 1.4 kg/m3 | mass density (333.15 K, 2070 kPa): 651.9 ± 1.4 kg/m3 | mass density (333.15 K, 2410 kPa): 652.3 ± 1.4 kg/m3 | mass density (333.15 K, 2760 kPa): 652.7 ± 1.4 kg/m3 | mass density (333.15 K, 3100 kPa): 653.2 ± 1.4 kg/m3 | mass density (333.15 K, 3450 kPa): 653.6 ± 1.4 kg/m3 | mass density (333.15 K, 3800 kPa): 654 ± 1.4 kg/m3 | mass density (333.15 K, 4140 kPa): 654.4 ± 1.4 kg/m3 | mass density (333.15 K, 4480 kPa): 654.8 ± 1.4 kg/m3 | mass density (333.15 K, 4830 kPa): 655.2 ± 1.4 kg/m3 | mass density (333.15 K, 5170 kPa): 655.6 ± 1.4 kg/m3 | mass density (333.15 K, 5510 kPa): 656 ± 1.4 kg/m3 | mass density (333.15 K, 5860 kPa): 656.4 ± 1.4 kg/m3 | mass density (333.15 K, 6200 kPa): 656.8 ± 1.4 kg/m3 | mass density (333.15 K, 6550 kPa): 657.2 ± 1.4 kg/m3 | mass density (333.15 K, 6890 kPa): 657.6 ± 1.4 kg/m3 | mass density (333.15 K, 7240 kPa): 658 ± 1.4 kg/m3 | mass density (333.15 K, 7580 kPa): 658.4 ± 1.4 kg/m3 | mass density (333.15 K, 7930 kPa): 658.8 ± 1.4 kg/m3 | mass density (333.15 K, 8270 kPa): 659.2 ± 1.4 kg/m3 | mass density (353.15 K, 340 kPa): 631.8 ± 1.4 kg/m3 | mass density (353.15 K, 690 kPa): 632.3 ± 1.4 kg/m3 | mass density (353.15 K, 1030 kPa): 632.8 ± 1.4 kg/m3 | mass density (353.15 K, 1380 kPa): 633.3 ± 1.4 kg/m3 | mass density (353.15 K, 1720 kPa): 633.9 ± 1.4 kg/m3 | mass density (353.15 K, 2070 kPa): 634.4 ± 1.4 kg/m3 | mass density (353.15 K, 2410 kPa): 634.9 ± 1.4 kg/m3 | mass density (353.15 K, 2760 kPa): 635.3 ± 1.4 kg/m3 | mass density (353.15 K, 3100 kPa): 635.8 ± 1.4 kg/m3 | mass density (353.15 K, 3450 kPa): 636.3 ± 1.4 kg/m3 | mass density (353.15 K, 3800 kPa): 636.8 ± 1.4 kg/m3 | mass density (353.15 K, 4140 kPa): 637.3 ± 1.4 kg/m3 | mass density (353.15 K, 4480 kPa): 637.7 ± 1.4 kg/m3 | mass density (353.15 K, 4830 kPa): 638.2 ± 1.4 kg/m3 | mass density (353.15 K, 5170 kPa): 638.7 ± 1.4 kg/m3 | mass density (353.15 K, 5510 kPa): 639.2 ± 1.4 kg/m3 | mass density (353.15 K, 5860 kPa): 639.6 ± 1.4 kg/m3 | mass density (353.15 K, 6200 kPa): 640.1 ± 1.4 kg/m3 | mass density (353.15 K, 6550 kPa): 640.6 ± 1.4 kg/m3 | mass density (353.15 K, 6890 kPa): 641 ± 1.4 kg/m3 | mass density (353.15 K, 7240 kPa): 641.5 ± 1.4 kg/m3 | mass density (353.15 K, 7580 kPa): 641.9 ± 1.4 kg/m3 | mass density (353.15 K, 7930 kPa): 642.3 ± 1.4 kg/m3 | mass density (353.15 K, 8270 kPa): 642.8 ± 1.4 kg/m3 | mass density (353.15 K, 8620 kPa): 643.2 ± 1.5 kg/m3 | mass density (353.15 K, 8960 kPa): 643.9 ± 1.5 kg/m3 | mass density (353.15 K, 9310 kPa): 644.1 ± 1.5 kg/m3 | mass density (353.15 K, 9650 kPa): 644.5 ± 1.5 kg/m3 | mass density (373.15 K, 340 kPa): 613.1 ± 1.4 kg/m3 | mass density (373.15 K, 690 kPa): 613.7 ± 1.4 kg/m3 | mass density (373.15 K, 1030 kPa): 614.3 ± 1.4 kg/m3 | mass density (373.15 K, 1380 kPa): 614.9 ± 1.4 kg/m3 | mass density (373.15 K, 1720 kPa): 615.5 ± 1.4 kg/m3 | mass density (373.15 K, 2070 kPa): 616.1 ± 1.4 kg/m3 | mass density (373.15 K, 2410 kPa): 616.7 ± 1.4 kg/m3 | mass density (373.15 K, 2760 kPa): 617.3 ± 1.4 kg/m3 | mass density (373.15 K, 3100 kPa): 618.2 ± 1.4 kg/m3 | mass density (373.15 K, 3450 kPa): 618.5 ± 1.4 kg/m3 | mass density (373.15 K, 3800 kPa): 619 ± 1.4 kg/m3 | mass density (373.15 K, 4140 kPa): 619.6 ± 1.4 kg/m3 | mass density (373.15 K, 4480 kPa): 620.2 ± 1.4 kg/m3 | mass density (373.15 K, 4830 kPa): 620.7 ± 1.4 kg/m3 | mass density (373.15 K, 5170 kPa): 621.2 ± 1.4 kg/m3 | mass density (373.15 K, 5510 kPa): 621.8 ± 1.4 kg/m3 | mass density (373.15 K, 5860 kPa): 622.3 ± 1.4 kg/m3 | mass density (373.15 K, 6200 kPa): 622.9 ± 1.4 kg/m3 | mass density (373.15 K, 6550 kPa): 623.4 ± 1.4 kg/m3 | mass density (373.15 K, 6890 kPa): 623.9 ± 1.4 kg/m3 | mass density (373.15 K, 7240 kPa): 624.4 ± 1.4 kg/m3 | mass density (373.15 K, 7580 kPa): 625 ± 1.5 kg/m3 | mass density (373.15 K, 7930 kPa): 625.5 ± 1.5 kg/m3 | mass density (373.15 K, 8270 kPa): 626 ± 1.5 kg/m3 | mass density (373.15 K, 8620 kPa): 626.5 ± 1.5 kg/m3 | mass density (373.15 K, 8960 kPa): 627 ± 1.5 kg/m3 | mass density (373.15 K, 9310 kPa): 627.5 ± 1.5 kg/m3 | mass density (373.15 K, 9650 kPa): 628 ± 1.5 kg/m3 | mass density (393.15 K, 340 kPa): 593.4 ± 1.4 kg/m3 | mass density (393.15 K, 690 kPa): 594.1 ± 1.4 kg/m3 | mass density (393.15 K, 1030 kPa): 594.9 ± 1.4 kg/m3 | mass density (393.15 K, 1380 kPa): 595.6 ± 1.4 kg/m3 | mass density (393.15 K, 1720 kPa): 596.3 ± 1.4 kg/m3 | mass density (393.15 K, 2070 kPa): 597 ± 1.4 kg/m3 | mass density (393.15 K, 2410 kPa): 597.8 ± 1.4 kg/m3 | mass density (393.15 K, 2760 kPa): 598.5 ± 1.4 kg/m3 | mass density (393.15 K, 3100 kPa): 599.2 ± 1.4 kg/m3 | mass density (393.15 K, 3450 kPa): 599.9 ± 1.4 kg/m3 | mass density (393.15 K, 3800 kPa): 600.5 ± 1.4 kg/m3 | mass density (393.15 K, 4140 kPa): 601.2 ± 1.4 kg/m3 | mass density (393.15 K, 4480 kPa): 601.9 ± 1.4 kg/m3 | mass density (393.15 K, 4830 kPa): 602.5 ± 1.4 kg/m3 | mass density (393.15 K, 5170 kPa): 603.2 ± 1.4 kg/m3 | mass density (393.15 K, 5510 kPa): 603.8 ± 1.4 kg/m3 | mass density (393.15 K, 5860 kPa): 604.4 ± 1.4 kg/m3 | mass density (393.15 K, 6200 kPa): 605.1 ± 1.4 kg/m3 | mass density (393.15 K, 6550 kPa): 605.7 ± 1.4 kg/m3 | mass density (393.15 K, 6890 kPa): 606.3 ± 1.5 kg/m3 | mass density (393.15 K, 7240 kPa): 606.9 ± 1.5 kg/m3 | mass density (393.15 K, 7580 kPa): 607.5 ± 1.5 kg/m3 | mass density (393.15 K, 7930 kPa): 608.1 ± 1.5 kg/m3 | mass density (393.15 K, 8270 kPa): 608.7 ± 1.5 kg/m3 | mass density (393.15 K, 8620 kPa): 609.3 ± 1.5 kg/m3 | mass density (393.15 K, 8960 kPa): 609.9 ± 1.5 kg/m3 | mass density (393.15 K, 9310 kPa): 610.8 ± 1.5 kg/m3 | mass density (393.15 K, 9650 kPa): 611.1 ± 1.5 kg/m3
